# Laboratory results from patent US6350786B1, “Stable complexes of poorly soluble compounds in ionic polymers” (Hoffmann-La Roche Inc., priority 1998, dated 2002).
# Assay: Solubility (aqueous / gastrointestinal fluids)
# Type: physicochemical
smiles,measurement,value
CCOC(=O)C(Cc1ccc(NC(=O)c2c(Cl)cccc2Cl)cc1)NC(=O)c1c(C)cccc1Cl (stereo not shown) [Compound II],solubility in gastrointestinal fluids,practically insoluble
